The values below come from patent publication US11505523B2, “HDAC8 inhibitors for treating cancer” (City of Hope, priority 2013, dated 2022).

Molecules are shown by their SMILES.

Series [1] deals with MOLM13 cells. Put plainly: Proliferation of MOLM13 cells, luminescent cell viability assay. Format: cell-based, human. The following applies: Homo sapiens, MOLM-13, 48 h, read-out: MOLM13 Proliferation IC50.
A further series deals with HeLa nuclear HDACs. Put plainly: Inhibition of HeLa nuclear HDACs (HeLa nuclear extract, mainly HDACs1-3). Format: biochemical. The following applies: read-out: HeLa HDAC IC50.
Series [2] concerns MV4-11 cells. Put plainly: Survival/apoptosis of MV4-11 AML cells by Annexin V labeling. The format is cell-based, human. The following applies: Homo sapiens, MV4-11, 48 h, read-out: MV4-11 Apoptosis IC50.
In series [3] the test system is MV4-11 cells. Put plainly: Proliferation of MV4-11 cells, luminescent cell viability assay. The format is cell-based, human. The following applies: Homo sapiens, MV4-11, 48 h, read-out: MV4-11 Proliferation IC50.
Another series deals with OCI-AML3 cells. Put plainly: Survival/apoptosis of OCI-AML3 AML cells by Annexin V labeling. To be noted: Homo sapiens, OCI-AML-3, 48 h, read-out: OCI-AML3 Apoptosis IC50. Format: cell-based, human.
Series [4] has as its system MOLM13 cells. Put plainly: Survival/apoptosis of MOLM13 AML cells by Annexin V labeling. The following applies: Homo sapiens, MOLM-13, 48 h, read-out: MOLM13 Apoptosis IC50. The format is cell-based, human.
For a further series, the target named is HDAC8 (Homo sapiens (Human), UniProt Q9BY41). Put plainly: Inhibition of HDAC8. Format: biochemical.
The target of another series is HDAC1 (Homo sapiens (Human), UniProt Q13547). Put plainly: Inhibition of purified HDAC1. The format is biochemical. To be noted: class I; read-out: HDAC 1 IC50.
A further series addresses HDAC11 (Homo sapiens (Human), UniProt Q96DB2). Put plainly: Inhibition of purified HDAC11. To be noted: read-out: HDAC 11 IC50; class IV.
The target of another series is HDAC6 (Homo sapiens (Human), UniProt Q9UBN7). Put plainly: Inhibition of purified HDAC6. The following applies: read-out: HDAC 6 IC50; class II.
Another series has as its target HDAC4 (Homo sapiens (Human), UniProt P56524). Put plainly: Inhibition of purified HDAC4. The following applies: read-out: HDAC 4 IC50; class II.
A further series addresses HDAC10 (Homo sapiens (Human), UniProt Q969S8). Put plainly: Inhibition of purified HDAC10. To be noted: read-out: HDAC 10 IC50; class II.
Another series concerns Cl1-1 cells. Put plainly: Cytotoxicity / anti-proliferative activity in CL1-1 lung cancer cells. The following applies: read-out: Cytotoxicity IC50 Cl1-1; mean SD of three determinations.
In the next series the target is HDAC3 (Homo sapiens (Human), UniProt O15379). Put plainly: Inhibition of purified HDAC3. The following applies: read-out: HDAC 3 IC50; class I.
For the next series, the target named is HDAC2 (Homo sapiens (Human), UniProt Q92769). Put plainly: Inhibition of purified HDAC2. To be noted: read-out: HDAC 2 IC50; class I.
Another series concerns H1299 cells. Put plainly: Cytotoxicity / anti-proliferative activity in H1299 lung cancer cells. The following applies: read-out: Cytotoxicity IC50 H1299; mean SD of three determinations.
A further series relates to CL1-5 cells. Put plainly: Cytotoxicity / anti-proliferative activity in CL1-5 lung cancer cells. The following applies: read-out: Cytotoxicity IC50 Cl1-5; mean SD of three determinations.
Series [5] relates to p53 target genes in 32D-CM cells. Put plainly: qRT-PCR of p53 target genes in 32D-CM cells. To be noted: 10 μM, 16 h. The format is cell-based.
In series [6] the test system is Ac-p53 (K379) in 32D-CM cells. Put plainly: Western blot of Ac-p53 in CBFβ-SMMHC (CM)-expressing 32D cells. The format is cell-based. The text has this: Cells were lysed in RIPA buffer containing protease inhibitor cocktail (Roche) and MG132. Antibodies used for IP were conjugated with protein A/G beads using the antibody cross-linking kit (Pierce Biotechnology, Rockford, Ill.) following manufacturer's protocol. For Western blot, proteins were resolved in 10% SDS-PAGE. The antibodies used induced anti-FLAG (Sigma), anti-HDAC8, anti-CBFβ (Santa Cruz), anti-p53 (DO-1), anti-Ac-p53 (K379) (Cell Signaling), anti-p53 (Cell signaling) and anti-β-actin (Sigma). Horseradish peroxidase-conjugated anti-rabbit or anti-mouse secondary antibodies (Jackson ImmunoResearch, West Grove Pa.) were used, followed by detection using the SuperFemto kit (Pierce Biotechnology, Rockford, Ill.).
Class 1 HDACs, including HDAC1, HDAC2, and HDAC3, reportedly could inhibit p53 activity by deacetylating p53 [41-43]. […] To test this, we used lentivirus (pLKO. 1) mediated expression of 2 independent small-hairpin (sh)-RNA sequences against Hdac8 to specifically knock-down Hdac8 in 32D-CM cells. Cells were exposed to IR (3Gy) and analyzed for levels of p53 acetylation 6 h after.
Background: Immunoblotting shows a protein as a band on a membrane.

Sequence of HDAC8 (Q9BY41 whole entry): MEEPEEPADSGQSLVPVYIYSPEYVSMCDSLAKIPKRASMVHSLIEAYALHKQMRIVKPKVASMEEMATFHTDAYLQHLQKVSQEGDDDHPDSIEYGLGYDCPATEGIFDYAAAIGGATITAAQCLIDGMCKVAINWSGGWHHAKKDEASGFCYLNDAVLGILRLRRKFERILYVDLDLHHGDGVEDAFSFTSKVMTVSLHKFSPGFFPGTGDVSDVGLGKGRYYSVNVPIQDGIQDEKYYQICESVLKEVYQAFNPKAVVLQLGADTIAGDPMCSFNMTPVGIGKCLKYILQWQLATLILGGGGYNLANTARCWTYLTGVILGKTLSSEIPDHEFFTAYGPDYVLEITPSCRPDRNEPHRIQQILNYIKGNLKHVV
Sequence of HDAC3 (O15379 whole entry, looked up, species assumed): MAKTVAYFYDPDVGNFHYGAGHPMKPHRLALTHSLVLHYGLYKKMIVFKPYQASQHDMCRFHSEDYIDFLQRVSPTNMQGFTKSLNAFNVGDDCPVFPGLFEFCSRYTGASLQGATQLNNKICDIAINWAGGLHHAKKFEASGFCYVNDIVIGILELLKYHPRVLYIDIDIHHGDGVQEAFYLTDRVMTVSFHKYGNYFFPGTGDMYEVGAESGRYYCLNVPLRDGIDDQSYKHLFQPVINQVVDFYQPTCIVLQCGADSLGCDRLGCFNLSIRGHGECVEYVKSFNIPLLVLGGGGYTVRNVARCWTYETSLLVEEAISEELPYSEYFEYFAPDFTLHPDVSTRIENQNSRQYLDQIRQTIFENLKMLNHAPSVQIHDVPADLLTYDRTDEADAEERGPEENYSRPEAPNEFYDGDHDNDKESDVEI
Sequence of HDAC3 (Q9Y618 whole entry partner, looked up, species assumed): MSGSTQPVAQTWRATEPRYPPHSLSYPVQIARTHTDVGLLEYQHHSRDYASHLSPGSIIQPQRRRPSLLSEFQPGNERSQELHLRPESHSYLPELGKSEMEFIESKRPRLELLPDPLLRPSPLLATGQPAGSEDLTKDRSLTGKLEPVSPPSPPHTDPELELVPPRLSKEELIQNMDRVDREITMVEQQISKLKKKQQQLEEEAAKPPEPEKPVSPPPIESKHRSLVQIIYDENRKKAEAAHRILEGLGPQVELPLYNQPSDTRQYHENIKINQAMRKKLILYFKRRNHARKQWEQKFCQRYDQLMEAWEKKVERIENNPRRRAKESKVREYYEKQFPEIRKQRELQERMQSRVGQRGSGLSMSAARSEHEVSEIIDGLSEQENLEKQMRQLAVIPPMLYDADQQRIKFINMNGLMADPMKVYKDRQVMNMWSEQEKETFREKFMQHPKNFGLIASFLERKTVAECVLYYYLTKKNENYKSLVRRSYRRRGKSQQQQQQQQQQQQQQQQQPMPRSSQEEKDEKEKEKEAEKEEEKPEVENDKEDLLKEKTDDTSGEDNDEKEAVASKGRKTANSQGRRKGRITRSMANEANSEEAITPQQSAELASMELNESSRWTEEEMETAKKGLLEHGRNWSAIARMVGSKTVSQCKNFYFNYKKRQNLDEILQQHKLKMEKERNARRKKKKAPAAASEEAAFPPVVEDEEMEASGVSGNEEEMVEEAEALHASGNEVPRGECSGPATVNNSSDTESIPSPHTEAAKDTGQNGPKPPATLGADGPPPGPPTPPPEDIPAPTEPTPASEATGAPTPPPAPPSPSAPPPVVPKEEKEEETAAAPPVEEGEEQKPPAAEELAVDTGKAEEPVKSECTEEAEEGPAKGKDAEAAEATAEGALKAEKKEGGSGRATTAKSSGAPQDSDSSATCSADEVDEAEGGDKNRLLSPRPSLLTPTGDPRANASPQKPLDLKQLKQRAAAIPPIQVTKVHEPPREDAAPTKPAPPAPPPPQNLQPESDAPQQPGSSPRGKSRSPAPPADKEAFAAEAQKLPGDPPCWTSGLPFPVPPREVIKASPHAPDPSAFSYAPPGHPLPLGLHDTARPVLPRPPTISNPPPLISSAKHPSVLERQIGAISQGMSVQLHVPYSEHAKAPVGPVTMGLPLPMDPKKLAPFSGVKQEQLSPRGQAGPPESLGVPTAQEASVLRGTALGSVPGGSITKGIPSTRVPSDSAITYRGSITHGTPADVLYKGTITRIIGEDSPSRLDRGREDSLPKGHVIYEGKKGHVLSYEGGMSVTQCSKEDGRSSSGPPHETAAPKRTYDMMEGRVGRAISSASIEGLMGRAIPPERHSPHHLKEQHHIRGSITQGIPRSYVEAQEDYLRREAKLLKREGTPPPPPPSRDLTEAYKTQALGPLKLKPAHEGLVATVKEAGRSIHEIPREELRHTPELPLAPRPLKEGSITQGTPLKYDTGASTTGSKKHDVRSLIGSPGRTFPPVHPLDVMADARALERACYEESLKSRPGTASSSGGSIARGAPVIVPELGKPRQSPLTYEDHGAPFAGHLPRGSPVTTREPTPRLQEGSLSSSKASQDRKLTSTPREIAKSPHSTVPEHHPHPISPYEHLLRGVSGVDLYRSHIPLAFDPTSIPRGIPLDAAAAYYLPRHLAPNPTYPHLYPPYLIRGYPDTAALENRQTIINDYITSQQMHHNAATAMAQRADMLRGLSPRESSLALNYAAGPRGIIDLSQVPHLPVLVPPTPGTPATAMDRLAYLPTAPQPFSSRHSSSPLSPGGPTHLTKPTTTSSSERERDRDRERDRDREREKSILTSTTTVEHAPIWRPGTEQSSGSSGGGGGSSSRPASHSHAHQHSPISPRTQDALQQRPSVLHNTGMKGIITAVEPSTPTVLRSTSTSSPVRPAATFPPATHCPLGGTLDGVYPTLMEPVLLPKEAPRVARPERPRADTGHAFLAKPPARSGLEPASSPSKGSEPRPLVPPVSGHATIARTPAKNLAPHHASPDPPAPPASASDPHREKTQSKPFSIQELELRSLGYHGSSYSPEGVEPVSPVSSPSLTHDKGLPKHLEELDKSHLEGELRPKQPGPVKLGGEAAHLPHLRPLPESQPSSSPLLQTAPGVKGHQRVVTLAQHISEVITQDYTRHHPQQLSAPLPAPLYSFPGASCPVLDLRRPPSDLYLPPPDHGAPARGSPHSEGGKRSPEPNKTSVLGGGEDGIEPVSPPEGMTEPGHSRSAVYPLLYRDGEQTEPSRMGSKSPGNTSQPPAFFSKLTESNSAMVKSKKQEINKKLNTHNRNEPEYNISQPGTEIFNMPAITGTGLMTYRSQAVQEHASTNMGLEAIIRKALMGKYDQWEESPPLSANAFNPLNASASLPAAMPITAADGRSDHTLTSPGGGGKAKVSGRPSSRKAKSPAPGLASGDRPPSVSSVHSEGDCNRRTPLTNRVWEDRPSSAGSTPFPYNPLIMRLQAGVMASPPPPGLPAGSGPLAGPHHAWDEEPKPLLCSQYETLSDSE
Sequence of HDAC11 (Q96DB2 whole entry, species assumed): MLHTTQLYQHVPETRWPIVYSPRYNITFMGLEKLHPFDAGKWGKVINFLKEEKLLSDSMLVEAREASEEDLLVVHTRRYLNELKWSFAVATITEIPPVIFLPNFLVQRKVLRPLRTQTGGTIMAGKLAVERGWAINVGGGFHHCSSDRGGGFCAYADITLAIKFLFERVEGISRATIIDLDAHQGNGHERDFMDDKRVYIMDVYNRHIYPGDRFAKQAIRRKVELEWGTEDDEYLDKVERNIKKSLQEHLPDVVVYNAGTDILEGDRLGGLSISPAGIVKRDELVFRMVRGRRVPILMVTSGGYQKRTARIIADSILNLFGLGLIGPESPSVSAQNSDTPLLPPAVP
Sequence of HDAC1 (Q13547 whole entry, species assumed): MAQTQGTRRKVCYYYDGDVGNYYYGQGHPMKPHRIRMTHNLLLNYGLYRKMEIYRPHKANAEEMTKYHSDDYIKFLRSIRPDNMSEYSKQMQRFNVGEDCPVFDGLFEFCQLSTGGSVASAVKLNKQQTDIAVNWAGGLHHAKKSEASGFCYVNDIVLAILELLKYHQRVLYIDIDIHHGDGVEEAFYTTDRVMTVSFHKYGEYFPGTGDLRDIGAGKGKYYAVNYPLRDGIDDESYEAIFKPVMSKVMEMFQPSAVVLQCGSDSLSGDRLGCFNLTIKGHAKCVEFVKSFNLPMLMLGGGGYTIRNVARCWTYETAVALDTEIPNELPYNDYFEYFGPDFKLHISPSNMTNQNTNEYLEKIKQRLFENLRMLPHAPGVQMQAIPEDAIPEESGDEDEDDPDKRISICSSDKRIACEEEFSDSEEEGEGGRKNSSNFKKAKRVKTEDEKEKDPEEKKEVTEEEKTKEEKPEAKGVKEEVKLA
Sequence of HDAC2 (Q92769 whole entry, species assumed): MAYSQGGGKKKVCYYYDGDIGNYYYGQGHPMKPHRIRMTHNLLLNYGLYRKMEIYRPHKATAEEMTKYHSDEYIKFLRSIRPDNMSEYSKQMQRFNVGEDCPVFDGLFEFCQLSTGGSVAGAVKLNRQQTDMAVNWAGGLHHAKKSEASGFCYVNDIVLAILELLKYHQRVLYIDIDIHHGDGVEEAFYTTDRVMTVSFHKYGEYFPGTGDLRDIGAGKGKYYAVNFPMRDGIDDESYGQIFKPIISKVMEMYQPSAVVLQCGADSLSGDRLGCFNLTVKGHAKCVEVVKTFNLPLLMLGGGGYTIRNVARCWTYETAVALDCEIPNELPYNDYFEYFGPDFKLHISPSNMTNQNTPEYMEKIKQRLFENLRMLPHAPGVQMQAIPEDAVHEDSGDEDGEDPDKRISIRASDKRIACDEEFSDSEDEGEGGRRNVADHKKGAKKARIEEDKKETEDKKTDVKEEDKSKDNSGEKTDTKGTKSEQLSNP

For `COc1ccc(/C=C/C(=O)NO)c(-c2ccc3c(c2)OCO3)c1` [Compound 5e], the IC50 in the series on MOLM13 cells [1] was found to be 3360 nM; with HeLa nuclear HDACs it was 8550 ± 0.12 nM; with MV4-11 cells [2] it was 11900 nM; in the series with MV4-11 cells [3], 7490 nM; in the series on OCI-AML3 cells it was 12500 nM; with MOLM13 cells [4], 11700 nM. At HDAC8 (inhibition of HDAC8, relative potency (Tables 1-3)), the “IC50 PCI34051/IC50 compound” value amounted to 1.86. In addition, the “A (relative potency to PCI34051)” value at HDAC8 (inhibition of HDAC8, footnote: (Tables 11-13)) amounted to 1.86.
As to `COc1ccc(/C=C/C(=O)NO)c(-c2ccc(Br)cc2)c1` [Compound 22b, (E)-N-Hydroxy-4-methoxy-2-(4-bromophenyl)cinnamide], the IC50 on HDAC1 is 4.5 ± 0.1 nM; on HDAC11 it was above 20 nM; in the series with HeLa nuclear HDACs, above 10000 nM; at HDAC6, above 20 nM; at HDAC4, above 20 nM; on HDAC10, above 20 nM. The IC50 is above 10 nM with Cl1-1 cells; 4.8 ± 0.5 nM at HDAC3; above 20 nM on HDAC2; above 10 nM in the series with H1299 cells; above 10 nM in the series on CL1-5 cells; 5.7 ± 0.1 nM on HDAC8 (mean SD of three determinations). In addition, the “fold more potent than 22a (HDAC8)” value at HDAC8 was 13 fold. Further, the “fold more potent than PCI34051 for HDAC8” value on HDAC8 is on record as “around ten”. Besides, the “HDAC8 inhibitory activity compared with PCI34051” value on HDAC8 (result in words) is on record as “superior to PCI34051”.
Consider `COc1ccc(Cn2ccc3ccc(C(=O)NO)cc32)cc1` [PCI34051, reference compound], for which, in [5], the “activation of p53 targets (Bax, Puma, p21, Gadd45b and LincRNA-p21)” value is “Variable levels of activation”. Also, the IC50 is above 10000 nM in the series on HeLa nuclear HDACs, above 10 nM in the series with Cl1-1 cells, above 10 nM in the series on H1299 cells and above 10 nM in the series with CL1-5 cells. Also, the “Ac-p53 level in CM-expressing cells” value in [6] (Western blot, 6 h) is reported as “remarkably increased Ac-p53”. The “Ac-p53 level, in combination with Nutlin-3” value in [6] (compared to Nutlin-3 alone) was “enhanced Ac-p53 compared to Nutlin-3 alone”.
